According to patent US9133158B2, “Bicyclic dihydroisoquinoline-1-one derivatives” (Hoffmann-La Roche Inc., priority 2011, dated 2015):

Legend:
[1] = biological target: T1, human CYP11B2 (Homo sapiens, UniProt P19099); test: G-402 cellular enzyme assay, human CYP11B2 (aldosterone release, HTRF); assay type: cell-based; details: G-402 cells, 1 μM Deoxycorticosterone
T1 construct: expressed in transfected cells
T1 sequence (P19099 25-503): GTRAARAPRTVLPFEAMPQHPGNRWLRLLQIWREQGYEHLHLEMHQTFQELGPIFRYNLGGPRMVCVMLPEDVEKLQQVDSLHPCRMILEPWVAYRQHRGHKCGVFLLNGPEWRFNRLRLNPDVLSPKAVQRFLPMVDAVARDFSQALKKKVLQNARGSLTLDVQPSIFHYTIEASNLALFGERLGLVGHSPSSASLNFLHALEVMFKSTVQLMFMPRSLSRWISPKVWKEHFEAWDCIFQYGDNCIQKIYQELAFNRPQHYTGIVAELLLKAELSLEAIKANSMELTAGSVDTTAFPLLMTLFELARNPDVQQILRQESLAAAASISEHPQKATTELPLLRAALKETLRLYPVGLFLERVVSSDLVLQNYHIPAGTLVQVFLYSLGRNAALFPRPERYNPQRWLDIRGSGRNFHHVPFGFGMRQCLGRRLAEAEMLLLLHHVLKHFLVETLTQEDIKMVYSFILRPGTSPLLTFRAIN
Method in brief: (§1)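 Steroid output from supernatants, quantified by HTRF as cortisol for CYP11B1 or aldosterone for CYP11B2, gave EC50 values by least-squares 4-parameter MMF fitting against inhibitor concentration. Stably transfected G-402 cells carrying the human enzyme received 1 μM deoxycortisol or 1 μM deoxycorticosterone respectively, 16 h, DMEM/F12 with 2.5% charcoal-stripped FCS.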

[2] = biological target: T2, human CYP11B1 (Homo sapiens, UniProt P15538); test: G-402 cellular enzyme assay, human CYP11B1 (cortisol release, HTRF); assay type: cell-based; details: G-402 cells, 1 μM Deoxycortisol
T2 construct: expressed in transfected cells
T2 sequence (P15538 25-503): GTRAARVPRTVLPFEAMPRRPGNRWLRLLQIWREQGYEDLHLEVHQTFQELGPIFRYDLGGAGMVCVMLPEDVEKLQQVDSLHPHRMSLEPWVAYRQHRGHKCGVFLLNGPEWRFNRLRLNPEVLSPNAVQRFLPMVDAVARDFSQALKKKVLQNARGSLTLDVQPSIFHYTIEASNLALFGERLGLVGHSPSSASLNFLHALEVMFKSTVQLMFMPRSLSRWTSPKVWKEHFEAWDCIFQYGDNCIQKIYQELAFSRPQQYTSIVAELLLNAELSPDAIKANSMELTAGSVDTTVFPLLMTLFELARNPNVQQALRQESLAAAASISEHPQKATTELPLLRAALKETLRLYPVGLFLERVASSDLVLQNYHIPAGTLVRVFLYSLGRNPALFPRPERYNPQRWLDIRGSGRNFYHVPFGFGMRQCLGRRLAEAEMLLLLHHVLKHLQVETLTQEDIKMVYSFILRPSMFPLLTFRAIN
Method in brief: as §1

Row | SMILES | EC50 [1] | EC50 [2]
1 | O=C1c2ccc(Cl)cc2CCN1c1cncc2cc[nH]c12 [Example 72, 6-Chloro-2-(1H-pyrrolo[3,2-c]pyridin-7-yl)-3,4-dihydro-2H-isoquinolin-1-one] | 588 nM | 16500 nM
2 | O=C1c2ccc(Cl)cc2CCN1c1cncc(CNC2COC2)c1 [Example 164, 6-Chloro-2-[5-(oxetan-3-ylaminomethyl)-pyridin-3-yl]-3,4-dihydro-2H-isoquinolin-1-one] | 141 nM | 862 nM
3 | CC(C)S(=O)(=O)NCc1cncc(N2CCc3cc(Cl)ccc3C2=O)c1 [Example 145, Propane-2-sulfonic acid [5-(6-chloro-1-oxo-3,4-dihydro-1H-isoquinolin-2-yl)-pyridin-3-ylmethyl]-amide] | 1500 nM | 1900 nM
4 | O=C1c2ccc(Cl)cc2CCN1c1cncc(F)c1 [Example 5, 6-Chloro-2-(5-fluoro-pyridin-3-yl)-3,4-dihydro-2H-isoquinolin-1-one] | 92.5 nM | 4270 nM
5 | NC1(c2cncc(N3CCc4cc(Cl)ccc4C3=O)c2)CC1 [Example 57, 2-[5-(1-Amino-cyclopropyl)-pyridin-3-yl]-6-chloro-3,4-dihydro-2H-isoquinolin-1-one] | 1280 nM | 8000 nM
6 | COc1cncc(N2CCc3cc(Cl)ccc3C2=O)c1 [Example 10, 6-Chloro-2-(5-methoxy-pyridin-3-yl)-3,4-dihydro-2H-isoquinolin-1-one] | 26 nM | 822 nM
7 | O=C1c2ccc(Cl)cc2CN1c1cncc2c1CCCC2O (stereo not shown) [Example 117, 5-Chloro-2-(8-hydroxy-5,6,7,8-tetrahydro-isoquinolin-4-yl)-2,3-dihydro-isoindol-1-one] | 127 nM | 894 nM
8 | COC(c1cncc(N2CCc3cc(Cl)ccc3C2=O)c1)C(F)(F)F (stereo not shown) [Example 19, 6-Chloro-2-[5-(2,2,2-trifluoro-1-methoxy-ethyl)-pyridin-3-yl]-3,4-dihydro-2H-isoquinolin-1-one] | 60.3 nM | 198 nM
9 | O=C1c2ccc(Cl)cc2CCN1c1cncc(Cn2nccn2)c1 [Example 174, 6-Chloro-2-(5-[1,2,3]triazol-2-ylmethyl-pyridin-3-yl)-3,4-dihydro-2H-isoquinolin-1-one] | 25.8 nM | 211 nM
10 | O=C(c1cncc(N2CCc3cc(Cl)ccc3C2=O)c1)N1CCOCC1 [Example 39, 6-Chloro-2-[5-(morpholine-4-carbonyl)-pyridin-3-yl]-3,4-dihydro-2H-isoquinolin-1-one] | 1090 nM | 10000 nM
11 | CC(=O)NCc1cncc(N2CCc3cc(Cl)ccc3C2=O)c1 [Example 153, N-[5-(6-Chloro-1-oxo-3,4-dihydro-1H-isoquinolin-2-yl)-pyridin-3-ylmethyl]-acetamide] | 302 nM | 15000 nM
12 | CC(C)N1CCN(Cc2cncc(N3CCc4cc(Cl)ccc4C3=O)c2)CC1 [Example 166, 6-Chloro-2-[5-(4-isopropyl-piperazin-1-ylmethyl)-pyridin-3-yl]-3,4-dihydro-2H-isoquinolin-1-one] | 14.1 nM | 96.3 nM
13 | O=C1c2ccc(Cl)cc2CCN1c1cncc(CN2CCC(F)(F)CC2)c1 [Example 168, 6-Chloro-2-[5-(4,4-difluoro-piperidin-1-ylmethyl)-pyridin-3-yl]-3,4-dihydro-2H-isoquinolin-1-one] | 3.4 nM | 47.5 nM
14 | Cn1ncnc1-c1cncc(N2CCc3cc(Cl)ccc3C2=O)c1 [Example 67, 6-Chloro-2-[5-(2-methyl-2H-[1,2,4]triazol-3-yl)-pyridin-3-yl]-3,4-dihydro-2H-isoquinolin-1-one] | 102 nM | 1200 nM
15 | CN1CCN(Cc2cncc(N3CCc4cc(Cl)ccc4C3=O)c2)C1=O [Example 159, 6-Chloro-2-[5-(3-methyl-2-oxo-imidazolidin-1-ylmethyl)-pyridin-3-yl]-3,4-dihydro-2H-isoquinolin-1-one] | 209 nM | 4460 nM
16 | CC(C)c1nccn1Cc1cncc(N2C(=O)c3ccc(Cl)cc3CC2C)c1 (stereo not shown) [Example 87, 6-Chloro-2-[5-(2-isopropyl-imidazol-1-ylmethyl)-pyridin-3-yl]-3-methyl-3,4-dihydro-2H-isoquinolin-1-one] | 251 nM | 9370 nM

Other lines, results leading:

Row | EC50 [1] | EC50 [2] | SMILES
17 | 100 nM | 22800 nM | CC(=O)N[C@@H]1CCCc2c1cncc2N1C(=O)c2ccc(Cl)cc2[C@H]1C1CC1 (single isomer, unassigned) [Example 372, N-[(R or S)-4-((R or S)-5-Chloro-3-cyclopropyl-1-oxo-1,3-dihydro-isoindol-2-yl)-5,6,7,8-tetrahydro-isoquinolin-8-yl]-acetamide]
18 | 1.9 nM | 233 nM | CCS(=O)(=O)N1CC[C@@H](Oc2cncc(N3C(=O)c4ccc(Cl)cc4C3(C)C)c2)C1 [Example 447, 5-Chloro-2-[5-((R)-1-ethanesulfonyl-pyrrolidin-3-yloxy)-pyridin-3-yl]-3,3-dimethyl-2,3-dihydro-isoindol-1-one]
19 | 555 nM | 6410 nM | O=C1c2ccc(Cl)cc2CCN1c1cncc2c([N+](=O)[O-])cccc12 [Example 287, 6-Chloro-8′-nitro-3,4-dihydro-[2,4′]biisoquinolinyl-1-one]
20 | 64 nM | 449 nM | CC(c1cncc(N2CCc3cc(Cl)ccc3C2=O)c1)n1cncn1 (stereo not shown) [Example 273, 6-Chloro-2-[5-(1-[1,2,4]triazol-1-yl-ethyl)-pyridin-3-yl]-3,4-dihydro-2H-isoquinolin-1-one]
21 | 46.6 nM | 1670 nM | CC1(C)c2cc(Cl)ccc2C(=O)N1c1cncc(CN2CCOC2=O)c1 [Example 412, 5-Chloro-3,3-dimethyl-2-[5-(2-oxo-oxazolidin-3-ylmethyl)-pyridin-3-yl]-2,3-dihydro-isoindol-1-one]
22 | 5.8 nM | 158 nM | Cc1ccc(C(=O)NCc2cncc(N3C(=O)c4ccc(Cl)cc4C3(C)C)c2)cn1 [Example 436, N-[5-(6-Chloro-1,1-dimethyl-3-oxo-1,3-dihydro-isoindol-2-yl)-pyridin-3-ylmethyl]-6-methyl-nicotinamide]
23 | 33.9 nM | 1520 nM | Nc1ccn(Cc2cncc(N3CCc4cc(Cl)ccc4C3=O)c2)n1 [Example 382, 2-[5-(3-Amino-pyrazol-1-ylmethyl)-pyridin-3-yl]-6-chloro-3,4-dihydro-2H-isoquinolin-1-one]
24 | 15.3 nM | 8170 nM | CC[C@@H]1c2cc(Cl)ccc2C(=O)N1c1cncc2c1CCC[C@@H]2NC(C)=O (single isomer, unassigned) [Example 355, N-[(S or R)-4-((R or S)-5-Chloro-3-ethyl-1-oxo-1,3-dihydro-isoindol-2-yl)-5,6,7,8-tetrahydro-isoquinolin-8-yl]-acetamide]
25 | 64.1 nM | 163 nM | CC(Nc1cccc(F)c1)c1cncc(N2CCc3cc(Cl)ccc3C2=O)c1 (stereo not shown) [Example 277, 6-Chloro-2-{5-[1-(3-fluoro-phenylamino)-ethyl]-pyridin-3-yl}-3,4-dihydro-2H-isoquinolin-1-one]
26 | 313 nM | 11300 nM | CCC(=O)NCc1cncc(N2C(=O)c3ccc(Cl)cc3C2CC)c1 (single isomer, unassigned) [Example 399, N-[5-((S or R)-5-Chloro-3-ethyl-1-oxo-1,3-dihydro-isoindol-2-yl)-pyridin-3-ylmethyl]-propionamide]
27 | 5.1 nM | 876 nM | CCS(=O)(=O)N1CC(Oc2cncc(N3C(=O)c4ccc(Cl)cc4C3(C)C)c2)C1 [Example 453, 5-Chloro-2-[5-(1-ethanesulfonyl-azetidin-3-yloxy)-pyridin-3-yl]-3,3-dimethyl-2,3-dihydro-isoindol-1-one]
28 | 515 nM | 36200 nM | CC1(C)c2nc(Cl)ccc2C(=O)N1c1cncc(F)c1 [Example 292, 2-Chloro-6-(5-fluoro-pyridin-3-yl)-7,7-dimethyl-6,7-dihydro-pyrrolo[3,4-b]pyridin-5-one]
29 | 40.2 nM | 1830 nM | CCS(=O)(=O)NC1CCCc2c1cncc2N1Cc2cc(Cl)ccc2C1=O (single isomer, unassigned; (+)) [Example 316, (+)-Ethanesulfonic acid [(R or S)-4-(5-chloro-1-oxo-1,3-dihydro-isoindol-2-yl)-5,6,7,8-tetrahydro-isoquinolin-8-yl]-amide]
